According to publication PMC10135059, “Kaurane-Type Diterpenoids as Potential Inhibitors of Dihydrofolate Reductase-Thymidylate Synthase in New World Leishmania Species” (Antibiotics, 2023):

What was measured:
[1] = target: L. chagasi PTR1 and DHFR-TS; parameters: method as in PMID 31409157; conditions: L. chagasi PTR1 vs DHFR-TS; cited from earlier work
[2] = target: T1, L. major dihydrofolate reductase (LmDHFR), recombinant LmDHFR-TS (Leishmania major, UniProt P07382); test: LmDHFR-TS enzyme inhibition assay (spectrophotometric, standard DHFR conditions); type: biochemical
T1 construct: made in house
Description: Then, using the Cheng–Prusoff equation and assuming reversible competitive inhibition and a 1:1 stoichiometry, the apparent inhibitory constant (Ki^app) was calculated for the selected kauranes using the IC50 results, as shown in Table 1.
Purification and kinetic characterization of the recombinant LmDHFR-TS protein was performed according to the previously reported procedures. The in vitro evaluation of selected diterpenoids (i.e., 4, 135, 301, 302, 301a, and 302a) for inhibitory activity against LmDHFR-TS was conducted using a spectrophotometric assay under standard DHFR conditions. The assay consisted of LmDHFR (2.7 nM), bovine serum albumin (BSA, 1 mg/mL), N-[tris(hydroxymethyl)-methyl]-2-aminoethanesulfonic acid (TES) buffer (100 mM, pH 7.0, […] β-mercaptoethanol, 2 mM ethylenediaminetetraacetic acid (EDTA)), and nicotinamide adenine dinucleotide phosphate (NADPH, 100 μM) with varying concentrations of the test compounds (0.1–128 μM). The reaction was initiated by adding the substrate (7,8-dihydrofolate (H2F), 20 μM) and was monitored for 360 s at 340 nm (i.e., oxidation of NADPH to NADP+) to determine the initial reaction rate (Vo) through linear regression analysis of the resulting absorbance profile. […] The Ki^app values were finally calculated using the Cheng–Prusoff equation for competitive inhibition with a 1:1 stoichiometry and reversible inhibitor-binding reactions: Ki^app = IC50/(1 + [S]/Km), where [S] is the substrate (H2F) concentration and Km is the Michaelis constant.

[3] = system: Leishmania major PTR1 (LmPTR1); parameters: method as in PMID 34063939; conditions: previous study; cited from earlier work
[4] = target: T1, L. major dihydrofolate reductase (LmDHFR), recombinant LmDHFR-TS; test: LmDHFR-TS enzyme inhibition assay (spectrophotometric, standard DHFR conditions); type: biochemical; conditions: cutoff pIC50 value of the L. major machine learning model
[5] = IC50, LmDHFR 2.7 nM, NADPH 100 μM, H2F 20 μM, test compounds 0.1–128 μM, triplicate

T1 sequence (P07382 whole entry): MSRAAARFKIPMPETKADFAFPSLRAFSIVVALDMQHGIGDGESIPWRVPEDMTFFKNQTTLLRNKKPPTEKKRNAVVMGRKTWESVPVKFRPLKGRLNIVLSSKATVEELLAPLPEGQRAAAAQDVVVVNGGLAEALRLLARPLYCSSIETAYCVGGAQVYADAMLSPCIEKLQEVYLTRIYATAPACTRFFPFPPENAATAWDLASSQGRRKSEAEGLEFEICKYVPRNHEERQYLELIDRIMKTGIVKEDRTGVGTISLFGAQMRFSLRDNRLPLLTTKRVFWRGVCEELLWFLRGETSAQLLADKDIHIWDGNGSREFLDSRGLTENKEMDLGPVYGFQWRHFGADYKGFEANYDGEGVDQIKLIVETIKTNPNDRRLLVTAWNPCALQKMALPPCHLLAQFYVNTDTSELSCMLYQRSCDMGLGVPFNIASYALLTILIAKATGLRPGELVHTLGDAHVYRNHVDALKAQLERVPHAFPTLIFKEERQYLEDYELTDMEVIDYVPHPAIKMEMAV

Structure (SMILES): Nc1nc(N)c(Cc2ccccc2)c(CC2CCCCC2)n1 [2,4-diamine, 5-benzyl-6-(cyclohexylmethyl) pyrimidine-2,4-diamine]
- Ki^Lc^PTR1/Ki^Lc^DHFR-TS ratio [1]: 0.68

Structure (SMILES): CC1(C)OCC2(CC34CCC5C(C)(C)C(=O)CCC5(C)C3CCC2C4)O1 (stereo not drawn) [structure 4, 16ß,17-Isopropylidenedioxy-ent-kauran-3-one]
- Ki [2]: 0.81 µM
- IC50 [2, 5]: 7.6 µM

Structure (SMILES): C=C1CC23CCC4C(C)(C(=O)OC5C=C(C)C(O)CC5C(C)C)CCCC4(C)C2CCC1C3 (stereo not drawn) [structure 135, 2β-hydroxy-menth-6-en-5β-yl ent-kaurenoate]
- Ki [2]: 1.2 µM
- IC50 [2, 5]: 11.2 µM

Structure (SMILES): C=C1CC23CCC4C(C)(C(=O)O)C(OC(=O)C=Cc5ccccc5)CCC4(C)C2(O)CCC1C3 (stereo not drawn) [structure 301, 3α-cinnamoyloxy-9β-hydroxy-ent-kaur-16-en-19-oic Acid]
- classification against PTR1 [3]: inactive
- Ki [2]: 0.94 µM
- IC50 [2, 5]: 8.8 µM
- IC50 ([2]; pIC50, pIC50 = −log IC50): < 10 µM
- classification against DHFR-TS [4]: active

Structure (SMILES): C=C1CC23CCC4C(C)(C(=O)O)C(OC(=O)C=Cc5ccc(O)cc5)CCC4(C)C2(O)CCC1C3 (stereo not drawn) [structure 301a, 3α-p-coumaroyloxy-9β-hydroxy-ent-kaur-16-en-19-oic acid]
- classification against PTR1 [3]: inactive
- Ki [2]: 0.85 µM
- IC50 [2, 5]: 7.9 µM
- reduction of Ki^app compared to kauranes 301 and 302 ([2]; effect of p-hydroxyl group, 301a vs 301, 302a vs 302): 10%
- IC50 ([2]; pIC50, pIC50 = −log IC50): < 10 µM

Structure (SMILES): C=C1CC23CCC4C(C)(CCC(OC(=O)C=Cc5ccccc5)C4(C)C(=O)O)C2CCC1C3 (stereo not drawn) [structure 302, 3α-cinnamoyloxy-ent-kaur-16-en-19-oic acid]
- half-maximal inhibitory concentrations (IC50) against PTR1 [3]: less than 10 µg/mL
- Ki [2]: 0.68 µM
- IC50 [2, 5]: 6.3 µM
- IC50 ([2]; pIC50, pIC50 = −log IC50): < 10 µM
